Reference: patent EP0686394A1, “Use of N-[[5-(naphthales-1-yl)-1,3-dioxan-2-yl]alkyl]acetamide derivatives for the preparation of medicaments for use in the treatment of neurodegenerative disorders” (SYNTHELABO, priority 1994, dated 1995)
Like-named read-outs stand apart in the source and are kept apart here.

Tests used:
[1] = tested on: ischémie cérébrale globale chez la souris; experiment: global cerebral ischemia test in mice (cardiac arrest induced by intravenous magnesium chloride; survival time); assay type: in vivo; conditions: Mus musculus, read-out: dose efficace 3 secondes (DE3sec)
From the text: Ainsi les composés utilisables selon l'invention ont été soumis au test de l'ischémie cérébrale globale chez la souris. L'ischémie est due à un arrêt cardiaque induit par une injection intraveineuse rapide de chlorure de magnésium. Dans ce test on mesure le "temps de survie", c'est-à-dire l'intervalle entre le moment de l'injection de chlorure de magnésium et le dernier mouvement respiratoire observable de chaque souris. Ce dernier mouvement est considéré comme l'indice ultime d'une fonction du système nerveux central. L'arrêt respiratoire apparaît approximativement 21 secondes après l'injection de chlorure de magnésium. Des souris mâles (SWISS OF₁ IFFA CREDO) sont étudiées par groupes de 10. Elles sont nourries et abreuvées ad libitum avant les essais. Le temps de survie est mesuré 10 minutes après l'administration intrapéritonéale ou 5 minutes après l'administration intraveineuse dans la veine caudale, des composés de formule (I). Les résultats sont donnés sous la forme de la différence entre le temps de survie mesuré dans un groupe de 10 souris ayant reçu le composé et le temps de survie mesuré dans un groupe de 10 souris ayant reçu le liquide véhicule. Les rapports entre le temps de survie et la dose du composé sont enregistrés graphiquement selon une courbe semilogarithmique. Cette courbe permet le calcul de la "dose efficace 3 secondes" (DE3sec), c'est-à-dire la dose (en mg/kg) qui produit une augmentation de 3 secondes du temps de survie par rapport au groupe témoin de 10 souris traitées par le véhicule. Une augmentation de 3 secondes du temps de survie est à la fois significative statistiquement et reproductible. A titre d'exemple, après injection par voie intrapéritonéale, la DE3sec du trans-N-[3-[5-(6-méthoxynaphtalén-1-yl)-1,3-dioxan-2-yl]propyl]acétamide dans ce test est de 11,4 mg/kg, la DE3sec du cis-N-[3-[5-(6-méthoxynaphtalén-1-yl)-1,3-dioxan-2-yl]propyl]acétamide dans ce test est de 6,1 mg/kg et la DE3sec du trans-N-[3-[5-[6-(cyclopropylméthoxy)naphtalén-1-yl]-1,3-dioxan-2-yl]propyl]acétamide dans ce test est de 6,1 mg/kg. Par voie intraveineuse, après solubilisation dans une solution de 2-hydroxypropyl-β-cyclodextrine, la DE3sec du trans-N-[3-[5-(6-méthoxynaphtalén-1-yl)-1,3-dioxan-2-yl]propyl]acétamide dans ce test est de 2,25 mg/kg.

[2] = tested on: ischémie focale permanente par occlusion intraluminale de l'artère cérébrale moyenne chez le rat; experiment: permanent focal ischemia model by intraluminal occlusion of the middle cerebral artery in the rat (infarct volume); assay type: in vivo; conditions: 1 mg/kg intraperitoneal, given 10 minutes, 2 h 30 and 5 h after occlusion; infarct volume evaluated 24 h after occlusion
From the text: L'activité neuroprotectrice des composés de formule (I) a été également démontrée dans un modèle d'ischémie focale permanente par occlusion intraluminale de l'artère cérébrale moyenne chez le rat, selon une méthode analogue à celle décrite dans Stroke, 20, 84-91 (1989). Sous anesthésie au méthohexital sodique, on ligature l'artère ptérygopalatine, l'artère carotidienne commune et l'artère carotidienne externe gauche; on introduit un fil de nylon dans l'artère carotidienne interne sur une longueur d'environ 18 mm correspondant à la distance qui sépare la naissance de l'artère carotidienne interne de celle de l'artère cérébrale moyenne. Les composés sont administrés 10 minutes, 2 heures 30 et 5 heures après l'occlusion, aux doses de 0,3; 1; 3 et 10 mg/kg par voie intrapéritonéale. 24 heures après l'occlusion de l'artère cérébrale moyenne, on sacrifie les animaux et on prélève le cerveau. On évalue le volume de l'infarctus cérébral à partir de la mesure de la surface de la nécrose sur 6 coupes coronales colorées par le chlorure de 2,3,5-triphényltétrazolium. A titre d'exemple le trans-N-[3-[5-(6-méthoxynaphtalén-1-yl)-1,3-dioxan-2-yl]propyl]acétamide réduit le volume de l'infarctus cérébral d'environ 30% à la dose de 1 mg/kg.

[3] = ip, 10 min, intraperitoneal injection, survival time measured 10 minutes after administration, dose giving a 3 second increase of survival time vs vehicle group

Row | SMILES | ED (3 s increase of survival time) [1, 3] [mg/kg] | ED (3 s increase of survival time) ([1]; 5 min, intravenous route, solubilised in 2-hydroxypropyl-β-cyclodextrine solution, survival time measured 5 minutes after administration) [mg/kg] | réduit le volume de l'infarctus cérébral [2] [%]
1 | CC(=O)NCCC[C@H]1OC[C@H](c2cccc3cc(OCC4CC4)ccc32)CO1 [trans-N-[3-[5-[6-(cyclopropylméthoxy)naphtalén-1-yl]-1,3-dioxan-2-yl]propyl]acétamide] | 6.1 |  | 
2 | COc1ccc2c(cccc2[C@H]2CO[C@H](CCCNC(C)=O)OC2)c1 [trans-N-[3-[5-(6-méthoxynaphtalén-1-yl)-1,3-dioxan-2-yl]propyl]acétamide] | 11.4 | 2.25 | ~30
3 | COc1ccc2c(cccc2[C@H]2CO[C@@H](CCCNC(C)=O)OC2)c1 [cis-N-[3-[5-(6-méthoxynaphtalén-1-yl)-1,3-dioxan-2-yl]propyl]acétamide] | 6.1 |  | 
